The record followed here is patent publication US20080167532A1, “ASSESSING CANCER TREATMENT RESPONSIVENESS” (Mayo Foundation for Medical Education and Research, priority 2006, published 2008).

Test [1] addresses T1, PPARγ (Homo sapiens, UniProt P37231).
T1 sequence (P37231 1-505): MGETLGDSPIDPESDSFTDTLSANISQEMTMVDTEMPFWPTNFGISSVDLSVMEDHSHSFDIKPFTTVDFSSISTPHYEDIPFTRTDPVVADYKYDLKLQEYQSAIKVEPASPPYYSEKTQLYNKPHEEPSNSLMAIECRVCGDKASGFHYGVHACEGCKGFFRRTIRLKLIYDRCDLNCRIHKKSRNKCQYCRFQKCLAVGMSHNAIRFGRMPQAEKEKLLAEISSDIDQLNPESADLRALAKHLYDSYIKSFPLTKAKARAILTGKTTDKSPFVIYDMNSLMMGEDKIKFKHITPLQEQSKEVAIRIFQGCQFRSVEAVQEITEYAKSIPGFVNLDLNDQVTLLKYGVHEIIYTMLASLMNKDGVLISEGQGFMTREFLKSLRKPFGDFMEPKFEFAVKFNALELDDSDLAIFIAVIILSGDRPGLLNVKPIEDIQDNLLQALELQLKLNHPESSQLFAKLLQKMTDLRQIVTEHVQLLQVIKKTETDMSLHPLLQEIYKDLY
Kind of test: PPAR isoform luciferase reporter in transfected RIE cells. In kind it is cell-based. On the set-up: expressed in transfected cells; host or cells: RIE (rat small intestinal cell line). The conditions noted are these: RIE cells transfected with PPARγ and PPRE3-tk-luc, 10 nM. The text has this:
Increased luciferase activity was only observed in the presence of PPARγ and PPRE3-tk-luc.
For orientation: A reporter such as luciferase makes a cellular process visible.

Test [2] deals with T1, PPARγ. Kind of test: PPRE3-tk-luc reporter (dual luciferase) assay in DRO cells. On the set-up: endogenous in cells; host or cells: DRO90-1 (DRO) human anaplastic thyroid carcinoma cells. The settings on record: DRO cells, PPRE3-tk-luc reporter, 24 hours; read-out: EC50, concentration at which 50% maximal transcriptional response occurs. The test is classed as cell-based. The method, then:
The effects of PPARγ agonists on DRO cells were investigated. […] Firefly luciferase activity was normalized to renilla […] activity (RLU) and plotted as mean values ±S.D. (FIG. 3A).
Cells were transfected with siRNA for 72 hours followed by transfected with a PPRE3-tk-luc reporter and treatment with 10 nM RS5444 for 24 hours. […] Cotransfection with renilla luciferase allowed for normalization to relative light units (RLU).
Cells were plated in 6-well culture plates at initial concentrations of 2×10^5 cells/well. After overnight incubation, cells were transfected with PPRE/luc and CMV/renilla luciferase plasmid using Lipofectamine 2000 (Invitrogen), and after 24 hours, cells were treated with PPAR-γ agonists at indicated concentrations. After 24 hours of drug treatments, cells were washed with PBS and lysed in 1× reporter lysis buffer (Roche), and luciferase activity was measured with a Dual Luciferase assay kit (Promega, Madison Wis.) with a luminometer (Veritas/Turner Biosystems). The enzyme activity was normalized for efficiency of transfection on the basis of renilla activity levels and reported as relative light units (RLU).

As for `Cc1cc(Oc2ccc3nc(COc4ccc(CC5SC(=O)NC5=O)cc4)n(C)c3c2)cc(C)c1N` (centres unmarked) [RS5444], in test [1], the “activation of PPARγ (luciferase activity)” value is “specifically activates PPARγ”. The EC50 in test [2] is around 1 nM.
